According to the supplement of paper PMC8988213:
Structures can show the parent of a compound that is named as a salt.

What was measured:
[1] = tested on: ID211 patient-derived PDAC 2D line (post-FOLFIRINOX); experiment: normalised area under dose-response curve (viability relative to DMSO, 7 doses up to 10 µM) (fraction (AUC)); higher = less sensitive (more viability retained); conditions: 72 h; top dose: 10 µM
Outline: (§1)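 Patient-derived 2D PDAC cells grown out from organoids were seeded robotically at 1,500–3,000 cells/well in 96-well plates and incubated overnight at 37°C, 5% CO2. SelleckChem library compounds were added at seven concentrations (3-fold dilution series, highest 10 µM) for 72 h. CellTiter-Glo luminescence was read after 10 min. Viability was normalised to the DMSO control, and area under the dose-response curve was derived with the GRmetrics R package.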

[2] = tested on: ID188 patient-derived PDAC 2D line (pre-FOLFIRINOX); experiment: as above; conditions: 72 h; top dose: 10 µM
Outline: as §1

Cc1c(CN2CCC(Nc3ncnc4sc(CC(F)(F)F)cc34)CC2)ccc2[nH]c(C#N)cc12 [MI-463]
normalised area under dose-response curve [1]: 0.825
normalised area under dose-response curve [2]: 0.713

Cc1c(CN2CCC(Nc3ncnc4sc(CC(F)(F)F)cc34)CC2)ccc2c1cc(C#N)n2Cc1cn[nH]c1 [MI-503]
normalised area under dose-response curve [1]: 0.805
normalised area under dose-response curve [2]: 0.871

O=C(O)CC[C@H]1CC[C@@](c2cc(F)ccc2F)(S(=O)(=O)c2ccc(Cl)cc2)CC1 [MK-0752]
normalised area under dose-response curve [1]: 0.83
normalised area under dose-response curve [2]: 0.888

CC(C)c1ccc2c(c1)c(SC(C)(C)C)c(CC(C)(C)C(=O)O)n2Cc1ccc(Cl)cc1 [MK-886 (L-663,536)]
normalised area under dose-response curve [1]: 0.843
normalised area under dose-response curve [2]: 0.989

NC1(c2ccc(-c3nc4ccn5c(=O)[nH]nc5c4cc3-c3ccccc3)cc2)CCC1 [MK-2206 2HCl]
normalised area under dose-response curve [1]: 0.672
normalised area under dose-response curve [2]: 0.844

CN(C(=O)CNC(=O)/C=C/c1cccc(Cl)c1)C1CCS(=O)(=O)CC1 [ML264]
normalised area under dose-response curve [1]: 0.894
normalised area under dose-response curve [2]: 0.796

Cc1cnc(-c2ccccc2C(C)C)nc1NCc1ccc(-n2ccnn2)cc1 [ML323]
normalised area under dose-response curve [1]: 0.871
normalised area under dose-response curve [2]: 0.932

CN(C)CCCNC(=O)c1ccc(-c2cc(O)c3ncccc3c2)cc1 [ML324]
normalised area under dose-response curve [1]: 0.774
normalised area under dose-response curve [2]: 0.953

O=C(CCNC(=O)c1ccc(OC(F)(F)F)cc1)N[C@@H]1CCCc2ccccc21 [ML390]
normalised area under dose-response curve [1]: 0.788
normalised area under dose-response curve [2]: 0.983

C[C@@H](NC(=O)c1ncnc(N)c1Cl)c1ncc(C(=O)Nc2cc(C(F)(F)F)c(Cl)cn2)s1 [MLN2480]
normalised area under dose-response curve [1]: 0.818
normalised area under dose-response curve [2]: 0.905

CC(C)Oc1ccc(-c2c[nH]cc2CN(C)CCN)cc1 [MS023]
normalised area under dose-response curve [1]: 0.634
normalised area under dose-response curve [2]: 0.842

Cc1cc(/N=N/c2ccc(S(=O)(=O)Nc3ccccn3)cc2)c(N)cc1O [MS436]
normalised area under dose-response curve [1]: 0.957
normalised area under dose-response curve [2]: 0.977

Cc1ccc(NC(=O)c2ccc(CN3CCN(C)CC3)cc2)cc1Nc1nc(-c2cccnc2)cs1 [Masitinib (AB1010)]
normalised area under dose-response curve [1]: 0.83
normalised area under dose-response curve [2]: 0.959

COc1cc(-n2c(=S)[nH]c3ccccc3c2=O)c(Cl)cc1Cl [Mdivi-1]
normalised area under dose-response curve [1]: 0.957
normalised area under dose-response curve [2]: 0.885

N[C@@H](Cc1ccc(N(CCCl)CCCl)cc1)C(=O)O [Melphalan]
normalised area under dose-response curve [1]: 0.853
normalised area under dose-response curve [2]: 0.87

CCS(=O)(=O)Nc1ccc(Oc2ccc(F)cc2F)c(-c2cn(C)c(=O)c3[nH]ccc23)c1 [Mivebresib(ABBV-075)]
normalised area under dose-response curve [1]: 0.538
normalised area under dose-response curve [2]: 0.666

CCCN(CCC)C(=O)C1=Cc2ccc(-c3ccc(C(=O)N4CCCC4)cc3)cc2N=C(N)C1 [Motolimod (VTX-2337)]
normalised area under dose-response curve [1]: 0.822
normalised area under dose-response curve [2]: 0.969

FC(F)(F)c1ccc(/C=C/c2nc(COc3ccc(CCCCn4ccnn4)cc3)co2)cc1 [Mubritinib (TAK 165)]
normalised area under dose-response curve [1]: 0.784
normalised area under dose-response curve [2]: 0.735

CC(C)CCn1c(CN2CCN(C(=O)C3CC3)CC2)nc2c1c(=O)n(C)c(=O)n2C [NCT-501]
normalised area under dose-response curve [1]: 0.822
normalised area under dose-response curve [2]: 0.965

Cc1cc(C)nc(NC(=S)N2CCN(Cc3ccc(C(F)(F)F)cc3)CC2)c1 [NCT-503]
normalised area under dose-response curve [1]: 0.909
normalised area under dose-response curve [2]: 0.954

Cc1cc(OCc2nnc(SC3CCCC3)n2-c2cccnc2)ccc1-c1ccc(S(C)(=O)=O)cc1 [NMS-873]
normalised area under dose-response curve [1]: 0.406
normalised area under dose-response curve [2]: 0.8

Oc1cc(CNC(=S)/C=C/c2cc(O)c(O)c(Br)c2)cc(O)c1O [NT157]
normalised area under dose-response curve [1]: 0.886
normalised area under dose-response curve [2]: 0.943

O=c1cc(N2CCOCC2)oc2c1ccc1ccccc12 [NU7026]
normalised area under dose-response curve [1]: 0.846
normalised area under dose-response curve [2]: 0.998

Cc1ccc(C(=O)Nc2cccc(C(F)(F)F)c2)cc1Nc1nc(-c2cccnc2)nc2c1cnn2C [NVP-BHG712]
normalised area under dose-response curve [1]: 0.831
normalised area under dose-response curve [2]: 0.869

COc1cc2c(cc1OC(C)C)[C@H](c1ccc(Cl)cc1)N(c1ccc(N(C)C[C@H]3CC[C@H](N4CCN(C)C(=O)C4)CC3)cc1)C(=O)C2 [NVP-CGM097]
normalised area under dose-response curve [1]: 0.72
normalised area under dose-response curve [2]: 0.988

CC(=O)c1cc2c(o1)C(=O)c1ccccc1C2=O [Napabucasin]
normalised area under dose-response curve [1]: 0.708
normalised area under dose-response curve [2]: 0.65

CCOc1cc2ncc(C#N)c(Nc3ccc(OCc4ccccn4)c(Cl)c3)c2cc1NC(=O)/C=C/CN(C)C [Neratinib (HKI-272)]
normalised area under dose-response curve [1]: 0.638
normalised area under dose-response curve [2]: 0.893

COC(=O)c1ccc2c(c1)NC(=O)/C2=C(\Nc1ccc(N(C)C(=O)CN2CCN(C)CC2)cc1)c1ccccc1 [Nintedanib (BIBF 1120)]
normalised area under dose-response curve [1]: 0.86
normalised area under dose-response curve [2]: 0.915

COC(=O)c1ccc2c(C(=Nc3ccc(N(C)C(=O)CN4CCN(C)CC4)cc3)c3ccccc3)c(O)[nH]c2c1 [Nintedanib Ethanesulfonate Salt]
normalised area under dose-response curve [1]: 0.791
normalised area under dose-response curve [2]: 0.833

COc1ccc(C2=N[C@@H](c3ccc(Cl)cc3)[C@@H](c3ccc(Cl)cc3)N2C(=O)N2CCNC(=O)C2)c(OC(C)C)c1 [Nutlin-3]
normalised area under dose-response curve [1]: 0.82
normalised area under dose-response curve [2]: 0.97

O=C(Nc1ccc(OC(F)(F)F)cc1)c1sccc1NCc1ccnc2ccccc12 [OSI-930]
normalised area under dose-response curve [1]: 0.819
normalised area under dose-response curve [2]: 0.904

Cc1cc(O)c(-c2ccc([C@@H](C)CN)cc2)c2c1[nH]c(=O)c1sccc12 [OTS514 hydrochloride]
normalised area under dose-response curve [1]: 0.443
normalised area under dose-response curve [2]: 0.368

Cc1sc2c(c1C)C(c1ccc(Cl)cc1)=N[C@@H](CC(=O)Nc1ccc(O)cc1)c1nnc(C)n1-2 [OTX015]
normalised area under dose-response curve [1]: 0.631
normalised area under dose-response curve [2]: 0.817

COC[C@H](NC(=O)c1cnc(C)s1)C(=O)N[C@@H](COC)C(=O)N[C@@H](Cc1ccccc1)C(=O)[C@@]1(C)CO1 [Oprozomib (ONX 0912)]
normalised area under dose-response curve [1]: 0.333
normalised area under dose-response curve [2]: 0.427
